Values quoted from earlier work in patent US11827443B2, “Aerosol foam dispenser” (The Procter & Gamble Company, priority 2021, dated 2023).

Conditions: in water at 20° C.

Structure (SMILES)	Water solubility at 20° C. (weight percent)
CCCC [Butane]	<0.01% weight percent
O=C=O [Carbon dioxide]	0.8% weight percent
COC [Dimethyl ether]	7% weight percent
[He] [Helium]	<0.01 weight percent
CC(C)C [Isobutane]	<0.01% weight percent
[N-]=[N+]=O [Nitrous oxide]	0.12 weight percent
